Where two headings read alike, the source gives them in different places.
Columns and labels:
[1] = target: NLuc::LmxCLK1 (Leishmania mexicana, UniProt E9AMP2); assay: cell-based; type: cell-based; conditions: for Target occupancy Run 1 / Target occupancy Run 2 / Target occupancy Average: 10 µM compound, tracer SV366, promastigotes; for Target occupancy Average: mean of two experiments
Description: All compounds were tested at a fixed concentration of 10 µM to enable direct comparison of their target occupancy in live cells.
Serially diluted probes (5 µL) were added to 85 µL of cells in culture media or 85 µL of purified protein. Final well volumes were adjusted to 100 µL with sterile Opti-MEM™ I Reduced Serum Medium (Thermo-Scientific) – for wells containing cells; or Kinase Buffer - for wells containing purified protein. For tracer displacement assays, samples were prepared as above, but final volume was brought to 100 µL by addition of vehicle or serially-diluted test compounds. Final DMSO concentration in these assays was 1%. […] Light emissions at 460+10 nm (BRET donor) and at 610+20 nm (BRET acceptor) were sequentially recorded (integration time = 0.5 s, gain = 3600) using a luminometer (BMG LABTECH Clariostar or Biotek Synergy HT). BRET values are reported in milli-BRET (mBRET) units (mBU), obtained by dividing the acceptor luminescence by the donor luminescence and multiplying the result by a factor of 1,000. BRET values were converted to blank-corrected probe occupancies (%) according to equation [1]: (1) Probeoccupancy(%)=X−Z/Y−Z×100 where X = mBRET value in the presence of the test compound and the probe, Y = mBRET value in the presence of probe only, and Z = mBRET value in the absence of probe and test compound. […]

[2] = target: T1, LmxCLK1 (Leishmania mexicana, UniProt E9AMP2); assay: biochemical; type: binding
T1 sequence (E9AMP2 1-422): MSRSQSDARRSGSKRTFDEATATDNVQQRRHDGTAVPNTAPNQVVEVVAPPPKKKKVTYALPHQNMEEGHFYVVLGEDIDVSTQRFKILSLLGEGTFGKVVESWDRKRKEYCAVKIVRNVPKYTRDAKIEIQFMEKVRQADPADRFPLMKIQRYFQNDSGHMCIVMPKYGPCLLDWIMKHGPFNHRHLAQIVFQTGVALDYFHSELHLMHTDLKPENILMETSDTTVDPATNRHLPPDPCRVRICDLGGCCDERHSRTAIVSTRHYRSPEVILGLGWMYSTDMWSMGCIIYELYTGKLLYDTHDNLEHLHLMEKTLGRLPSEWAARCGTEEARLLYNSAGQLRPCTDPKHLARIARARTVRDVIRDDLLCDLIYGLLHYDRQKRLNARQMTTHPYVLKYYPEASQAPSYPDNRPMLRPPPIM

[3] = DSF, 10 µM compound, 2 µM LmxCLK1, Run 1
[4] = DSF, 10 µM compound, 2 µM LmxCLK1, Run 2
[5] = DSF, 10 µM compound, 2 µM LmxCLK1, mean of two runs
[6] = read-out: Target occupancy Average
[7] = read-out: Target occupancy Run 1
[8] = read-out: Target occupancy Run 2
[9] = DSF, 10 µM compound, 2 µM LmxCLK1, Run 1, read-out: ΔTm Run 1
[10] = DSF, 10 µM compound, 2 µM LmxCLK1, Run 2, read-out: ΔTm Run 2
[11] = DSF, 10 µM compound, 2 µM LmxCLK1, mean of two runs, read-out: ΔTm Average

Molecule	Target occupancy Run 1 [1] [%]	Target occupancy Run 2 [1] [%]	Target occupancy Average [1] [%]	ΔTm Run 1 [2, 3] [°C]	ΔTm Run 2 [2, 4] [°C]	ΔTm Average [2, 5] [°C]	receptor occupancy at 10 µM [1, 6] [%]	receptor occupancy at 10 µM [1, 7] [%]	receptor occupancy at 10 µM [1, 8] [%]	ΔTm at 10 µM [2, 9] [°C]	ΔTm at 10 µM [2, 10] [°C]	ΔTm at 10 µM [2, 11] [°C]	ΔTm Average [2]	ΔTm Run 1 [2]	ΔTm Run 2 [2]
COc1cc(Nc2c(C#N)cnc3cc(OCCCN4CCN(C)CC4)c(OC)cc23)c(Cl)cc1Cl [Bosutinib (SKI-606)]	7.7	-36.0	-14.2	0.5	0.6	0.5	–	–	–	–	–	–	–	–	–
O=C(Nc1ccc(OC(F)(F)F)cc1)c1sccc1NCc1ccnc2ccccc12 [OSI-930]	–	–	–	–	–	–	0.1	-0.4	0.6	0.4	0	0.2	–	–	–
CC(C)(C)n1nc(-c2ccc(Cl)cc2)c2c(N)ncnc21 [PP2]	-3.1	0.5	-1.3	–	–	–	–	–	–	–	–	–	0 °C	0.2 °C	-0.2
Cn1cc(C2=C(c3cn(C4CCN(Cc5ccccn5)CC4)c4ccccc34)C(=O)NC2=O)c2ccccc21 [Enzastaurin (LY317615)]	2.6	-1.9	0.3	0.1	-0.2	0.0	–	–	–	–	–	–	–	–	–
COc1ccc(-c2cc3c(C)nc(N)nc3n([C@H]3CC[C@H](OCCO)CC3)c2=O)cn1 [PF-04691502]	-3.4	-25.8	-14.6	–	–	–	–	–	–	–	–	–	0.2 °C	0.3 °C	0.1 °C
COc1ccc2c(c1)c(C1=C(c3c[nH]c4ccccc34)C(=O)NC1=O)cn2CCCN(C)C [Go 6983]	-11.0	-14.1	-12.6	0.6	0.0	0.3	–	–	–	–	–	–	–	–	–
C[C@H](NC(=O)/C(C#N)=C/c1cccc(Br)n1)c1ccccc1 [WP1066]	–	–	–	–	–	–	-7.5	3.4	-18.3	0.1	0	0	–	–	–
C[C@@H]1COC(Nc2ccc3ncnc(Nc4ccc(OCc5nccs5)c(Cl)c4)c3c2)=N1 [Varlitinib]	–	–	–	–	–	–	-0.8	2.7	-4.3	0.2	0	0.1	–	–	–
O=C(/C=C/c1ccc2ccccc2n1)c1ccncc1 [PFK15]	-10.7	-9.2	-10.0	–	–	–	–	–	–	–	–	–	0.1 °C	0.2 °C	0.1 °C
COc1ccc(Cl)cc1NC(=O)Nc1cc(C)nc2ccccc12 [PQ 401]	-4.0	1.2	-1.4	0.0	-0.2	-0.1	–	–	–	–	–	–	–	–	–
AZD4547	-24.6	21.5	-1.5	-0.1	-0.3	-0.2	–	–	–	–	–	–	–	–	–
C=CC(=O)Nc1ccc2ncnc(Nc3ccc(OCc4cccc(F)c4)c(Cl)c3)c2c1 [AST-1306]	–	–	–	–	–	–	-9.2	-7.7	-10.7	-0.1	-0.4	-0.2	–	–	–
COc1ccc(Cl)c(Nc2nc3ccccc3nc2NS(=O)(=O)c2cccc(NC(=O)C(C)(C)N)c2)c1 [XL147]	–	–	–	–	–	–	-5	-8.3	-1.7	-0.1	0.8	0.4	–	–	–
O=c1cc(-c2cccc3c2Sc2ccccc2S3)oc(N2CCOCC2)c1 [KU-55933 (ATM Kinase Inhibitor)]	4.0	-21.9	-9.0	0.6	0.2	0.4	–	–	–	–	–	–	–	–	–
O=C1NC(=O)/C(=C/c2ccc3nccc(-c4ccncc4)c3c2)S1 [GSK1059615]	–	–	–	–	–	–	-2.8	-4.2	-1.5	0.3	-0.2	0	–	–	–
C[C@H]1[C@H](C)CC[C@]2(C(=O)O)CC[C@]3(C)C(=CC[C@@H]4[C@@]5(C)C[C@@H](O)[C@H](O)[C@@](C)(CO)[C@@H]5CC[C@]43C)[C@H]12 [Asiatic Acid]	–	–	–	–	–	–	-4.4	8.6	-17.4	0.2	0.1	0.2	–	–	–
Cc1cnc(NC(=O)Nc2cc(Br)c(C)cc2OC[C@@H]2CNCCO2)cn1 [LY2603618]	–	–	–	–	–	–	-11.8	7	-30.5	0	-0.4	-0.2	–	–	–
O=C1c2ccc(Nc3ccc(F)cc3F)cc2CCc2ccc(OC[C@H](O)CO)cc21 [Skepinone-L]	–	–	–	–	–	–	-1.4	6.5	-9.2	0	0.1	0.1	–	–	–
CC(C)n1nc(-c2ccc3oc(N)nc3c2)c2c(N)ncnc21 [INK 128 (MLN0128)]	-0.8	0.1	-0.3	0.6	0.5	0.5	–	–	–	–	–	–	–	–	–
Nc1ncnc2c1c(-c1cnc3[nH]ccc3c1)nn2C1CCCC1 [PP121]	-0.4	-14.8	-7.6	0.9	0.7	0.8	–	–	–	–	–	–	–	–	–
COc1cccc2cc(-c3nc([C@H]4CC[C@H](C(=O)O)CC4)n4ncnc(N)c34)[nH]c12 [OSI-027]	–	–	–	–	–	–	-8.9	5.5	-23.2	0.1	-0.4	-0.2	–	–	–
O=C(/C=C/c1ccc(O)c(O)c1)c1ccc(O)cc1O [Butein]	–	–	–	–	–	–	-10.8	3.3	-25	0	0.4	0.2	–	–	–
COc1cc2ncnc(Nc3ccc(O)c(Br)c3)c2cc1OC [WHI-P154]	7.3	-12.9	-2.8	0.1	0.1	0.1	–	–	–	–	–	–	–	–	–
NC(=O)Nc1sc(-c2ccc(F)cc2)cc1C(N)=O [TPCA-1]	1.2	-7.6	-3.2	0.1	0.2	0.2	–	–	–	–	–	–	–	–	–
O=C(NCCO)c1cccc(-c2cc(Nc3ccc(OC(F)(F)F)cc3)ncn2)c1 [GNF-5]	-7.9	-2.3	-5.1	–	–	–	–	–	–	–	–	–	-0.3	-0.2	-0.3
CNc1nc(Nc2cnn([C@H]3CCN(C4COC4)C[C@@H]3F)c2Cl)ncc1C(F)(F)F [GNE-9605]	3.1	-5.2	-1.1	–	–	–	–	–	–	–	–	–	-0.4	-0.2	-0.5
O=C(O)[C@]1(Cc2cccc(Nc3nccs3)n2)CC[C@@H](Oc2cccc(Cl)c2F)CC1 [MK-5108 (VX-689)]	-2.8	1.0	-0.9	-0.1	-0.2	-0.1	–	–	–	–	–	–	–	–	–

Source: article PMC7619385 (ACS infectious diseases, 2025)
